#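 These data come from cells grown in 96-well plates and exposed to compound for 48 hours at five concentrations. GI50: concentration for 50% inhibition of growth. The concentration for full growth arrest is given as TGI.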
# Key:
# Test in all cases: inhibition of tumour cell growth, NCI panel, 48 h
# [1] = test system: LOX IMVI melanoma
# [2] = test system: OVCAR-3 ovarian
# [3] = test system: SK-MEL-5 melanoma
# [4] = test system: BT-549 breast
# [5] = test system: SK-MEL-2 melanoma
# [6] = test system: A498 renal
# [7] = test system: KM12 colon
# [8] = test system: OVCAR-8 ovarian
# [9] = test system: EKVX NSCLC
# [10] = test system: MOLT-4 leukemia
# [11] = test system: 786-0 renal
# [12] = test system: T-47D breast
# [13] = test system: NCI-H226 lung
# [14] = test system: CCRF-CEM leukemia
# [15] = test system: HOP-62 NSCLC
# [16] = test system: UACC-62 melanoma
# [17] = test system: MALME-3M melanoma
# [18] = test system: SF-268 CNS
# [19] = test system: CAKI-1 renal
# [20] = test system: UO-31 renal
# [21] = test system: HCC-2998 colon
# [22] = test system: SNB-19 CNS
# [23] = test system: PC-3 prostate
# [24] = test system: RXF 393 renal
# [25] = test system: TK-10 renal
# [26] = test system: COLO 205 colon
# [27] = test system: DU-145 prostate
# [28] = test system: OVCAR-4 ovarian
# [29] = test system: MCF7 breast
# [30] = test system: SK-OV-3 ovarian
# [31] = test system: K-562 leukemia
# [32] = test system: NCI/ADR-RES ovarian
# [33] = test system: NCI-H23 lung
# [34] = test system: HT29 colon
# [35] = test system: NCI-H460 lung
# [36] = test system: NCI-H522 lung
# [37] = test system: HCT-116 colon
# [38] = test system: SF-539 CNS
# [39] = test system: SN12C renal
# [40] = test system: MDA-MB-231 breast
# [41] = test system: SW-620 colon
# [42] = test system: HOP-92 NSCLC
# [43] = test system: SF-295 CNS
# [44] = test system: U251 CNS
# [45] = test system: HCT-15 colon
# [46] = test system: IGROV1 ovarian
# [47] = test system: SK-MEL-28 melanoma
# [48] = test system: A549 NSCLC
# [49] = test system: OVCAR-5 ovarian
# [50] = test system: UACC-257 melanoma
# [51] = test system: ACHN renal
# [52] = test system: HS 578T breast
# [53] = test system: M14 melanoma
# [54] = test system: MDA-MB-435
compound,measurement,setting,value
C=C(C)[C@@H]1CC[C@]2(C#N)CC[C@]3(C)[C@H](CC[C@@H]4[C@@]5(C)CCCNC(C)(C)[C@@H]5CC[C@]43C)[C@@H]12,GI50,[1],1.67 µM
same,TGI,[1],3.04 µM
same,GI50,[2],1.75 µM
same,TGI,[2],3.38 µM
same,GI50,[3],1.71 µM
same,TGI,[3],3.08 µM
same,GI50,[4],1.75 µM
same,TGI,[4],3.42 µM
same,GI50,[5],2.1 µM
same,TGI,[5],3.94 µM
same,GI50,[6],10.1 µM
same,TGI,[6],23 µM
same,GI50,[7],1.66 µM
same,TGI,[7],3.23 µM
same,GI50,[8],1.84 µM
same,TGI,[8],3.38 µM
same,GI50,[9],1.79 µM
same,TGI,[9],3.83 µM
same,GI50,[10],2.14 µM
same,TGI,[10],5.57 µM
same,GI50,[11],1.69 µM
same,TGI,[11],3.07 µM
same,GI50,[12],1.76 µM
same,TGI,[12],4.05 µM
same,GI50,[13],2.61 µM
same,TGI,[13],9.79 µM
same,GI50,[14],2.73 µM
same,TGI,[14],9.38 µM
same,GI50,[15],1.65 µM
same,TGI,[15],3.29 µM
same,GI50,[16],1.96 µM
same,TGI,[16],3.6 µM
same,GI50,[17],1.61 µM
same,TGI,[17],3.2 µM
same,GI50,[18],3.11 µM
same,TGI,[18],10.4 µM
same,GI50,[19],3.2 µM
same,TGI,[19],11.5 µM
same,GI50,[20],2.41 µM
same,TGI,[20],7.92 µM
same,GI50,[21],1.8 µM
same,TGI,[21],3.24 µM
same,GI50,[22],2.29 µM
same,TGI,[22],4.69 µM
same,GI50,[23],2.7 µM
same,TGI,[23],10.7 µM
same,GI50,[24],1.7 µM
same,TGI,[24],3.16 µM
same,GI50,[25],2.04 µM
same,TGI,[25],4.54 µM
same,GI50,[26],1.96 µM
same,TGI,[26],3.51 µM
same,GI50,[27],1.85 µM
same,TGI,[27],3.48 µM
same,GI50,[28],2.16 µM
same,TGI,[28],4.44 µM
same,GI50,[29],1.53 µM
same,TGI,[29],2.91 µM
same,GI50,[30],11.1 µM
same,TGI,[30],25.4 µM
same,GI50,[31],2.09 µM
same,TGI,[31],10.5 µM
same,GI50,[32],1.89 µM
same,TGI,[32],3.63 µM
same,GI50,[33],3.32 µM
same,TGI,[33],10.9 µM
same,GI50,[34],1.64 µM
same,TGI,[34],3.1 µM
same,GI50,[35],1.88 µM
same,TGI,[35],3.54 µM
same,GI50,[36],1.93 µM
same,TGI,[36],3.61 µM
same,GI50,[37],1.75 µM
same,TGI,[37],3.19 µM
same,GI50,[38],1.67 µM
same,TGI,[38],3.11 µM
same,GI50,[39],1.77 µM
same,TGI,[39],3.25 µM
same,GI50,[40],1.84 µM
same,TGI,[40],3.38 µM
same,GI50,[41],1.77 µM
same,TGI,[41],3.42 µM
same,GI50,[42],2.69 µM
same,TGI,[42],11.3 µM
same,GI50,[43],1.7 µM
same,TGI,[43],3.1 µM
same,GI50,[44],1.75 µM
same,TGI,[44],3.13 µM
same,GI50,[45],1.61 µM
same,TGI,[45],3.05 µM
same,GI50,[46],1.82 µM
same,TGI,[46],3.47 µM
same,GI50,[47],1.92 µM
same,TGI,[47],3.5 µM
same,GI50,[48],1.94 µM
same,TGI,[48],3.77 µM
same,GI50,[49],2.72 µM
same,TGI,[49],7.15 µM
same,GI50,[50],2.27 µM
same,TGI,[50],4.3 µM
same,GI50,[51],1.83 µM
same,TGI,[51],3.22 µM
same,GI50,[52],2.01 µM
same,TGI,[52],4.85 µM
same,GI50,[53],1.83 µM
same,TGI,[53],3.49 µM
same,GI50,[54],1.92 µM
same,TGI,[54],3.78 µM
